{
  "source": "patent US10258235B2",
  "about": "“Method and device for the assessment of bowel function” (Purdue Pharma L.P., priority 2005, dated 2019)",
  "key": {"[1]": {"test_system": "patients with severe chronic pain of tumor and non-tumor origin", "experiment": "Mean pain (0-100 NAS) during the last 7 days before each visit, clinical Phase II study", "assay_type": "in vivo, human", "conditions": "for Mean Pain, Mean V5 / Mean Pain, Mean V3: NAS 0-100; for Mean Pain, Mean V3: end of titration visit (V3, baseline before naloxone)", "description": "(§1) The method of the present invention and analog scales of the present invention were employed in a clinical Phase II study conducted in Europe.\n(§2) For some analyses, the last observation was carried forward for those ITT subjects who discontinued after Visit 4 (ITT/LOCF). In other instances, only the available data were used (ITT non-missing).\n(§3) The Per Protocol (PP) population included all randomized patients who completed the study (including the follow-up phase) without major protocol violations. […] Only deviations from the visit window of the maintenance phase visits (visit 4 and 5) were regarded as major protocol violations. Deviations from the other visits were regarded as minor protocol violations. […] 3. Primary Efficacy Variables\n(§4) a) Mean Pain during the last 7 days prior to each visit, based on the patient's twice-daily assessment of pain intensity using the 0-100 numerical analogue scale (NAS) (0=no pain and 100=worst imaginable pain). Mean Pain was calculated for each study visit as the mean value of the daily mean values of all patient's diary entries from the last 7 days. b) Mean bowel function: patient's assessment, at each study visit, of bowel function during the last 7 days prior to each visit. Mean bowel function was calculated from the mean of the three 0-100 NAS scores: ease of defecation (0=easy/no difficulty, 100=severe difficulty), feeling of incomplete bowel evacuation (0=not at all, 100=very strong), and judgment of constipation (0=not at all, 100=very strong). 4. Analgesic Efficacy Results"}, "[2]": {"test_system": "patients with severe chronic pain of tumor and non-tumor origin", "conditions": "for Mean Bowel Function Score, Mean V3: end of titration visit (V3, baseline before naloxone); for mean bowel function (±SD) at Visit 4: Visit 4 (after 1 week of naloxone); for mean bowel function (±SD) at the end of the maintenance phase: PP population", "description": "as §1, §2, §3, §4\nMean bowel function was calculated for each study visit from the mean of the three NAS values ease/difficulty of defecation, feeling of incomplete bowel evacuation and judgment of constipation.\nIn addition, two-sided 95% CIs (CI, confidence interval) for the difference in means between the treatment groups were provided. […] These analyses were performed for the ITT and PP populations.\nThe parameter estimates derived were taken to display a surface plot of the whole dose range investigated. Moreover, a contour plot of the bowel function with a granulation of 10 was performed."}},
  "note": "Where “and” joins values, the source holds several entries; their conditions need not be identical. Equal entries are not always repeated. Entries after “also recorded” stand apart in the source; their conditions may differ. Where two headings read alike, the source gives them in different places.",
  "data": [
    {"compound": "C=CCN1CC[C@]23c4c5ccc(O)c4O[C@H]2C(=O)CC[C@@]3(O)[C@H]1C5", "note": "[Naloxone, naloxone]", "values": [
      {"measurement": "Mean Pain, Mean V5", "setting": "[1]; ITT non-missing, end of maintenance visit (V5, 4 weeks), naloxone 10 mg/day plus oxycodone 40-80 mg/day", "result": 37.2},
      {"measurement": "Mean Pain, Mean V5", "setting": "[1]; ITT non-missing, end of maintenance visit (V5, 4 weeks), naloxone 20 mg/day plus oxycodone 40-80 mg/day", "result": 37.5},
      {"measurement": "Mean Pain, Mean V5", "setting": "[1]; ITT non-missing, end of maintenance visit (V5, 4 weeks), naloxone 40 mg/day plus oxycodone 40-80 mg/day", "result": 38.7},
      {"measurement": "Mean Pain, Mean V3", "setting": "[1]; ITT non-missing, naloxone 10 mg/day group, oxycodone 40-80 mg/day", "result": 35.9},
      {"measurement": "Mean Pain, Mean V3", "setting": "[1]; ITT non-missing, naloxone 20 mg/day group, oxycodone 40-80 mg/day", "result": 39.8},
      {"measurement": "Mean Pain, Mean V3", "setting": "[1]; ITT non-missing, naloxone 40 mg/day group, oxycodone 40-80 mg/day", "result": 38.1},
      {"measurement": "Mean Pain, Mean V5", "setting": "[1]; PP, end of maintenance visit (V5), naloxone 10 mg/day plus oxycodone 40-80 mg/day", "result": 38.8},
      {"measurement": "Mean Pain, Mean V5", "setting": "[1]; PP, end of maintenance visit (V5), naloxone 20 mg/day plus oxycodone 40-80 mg/day", "result": 36.1},
      {"measurement": "Mean Pain, Mean V5", "setting": "[1]; PP, end of maintenance visit (V5), naloxone 40 mg/day plus oxycodone 40-80 mg/day", "result": 38.7},
      {"measurement": "Mean Pain, Mean V3", "setting": "[1]; PP, naloxone 10 mg/day group", "result": 38.0},
      {"measurement": "Mean Pain, Mean V3", "setting": "[1]; PP, naloxone 20 mg/day group", "result": 40.1},
      {"measurement": "Mean Pain, Mean V3", "setting": "[1]; PP, naloxone 40 mg/day group", "result": 39.0},
      {"measurement": "Analgesic efficacy / mean pain, active naloxone versus naloxone placebo (in words)", "setting": "[1]; end of maintenance, naloxone 10-40 mg/day added to oxycodone 40-80 mg/day", "result": "did not point to a difference in analgesic efficacy; also recorded: no evidence of changes in mean pain with varying amounts of naloxone"},
      {"measurement": "Mean Bowel Function Score, Mean V5", "setting": "[2]; ITT (non-missing), end of maintenance (V5, 4 weeks), naloxone 10 mg/day plus oxycodone 40-80 mg/day, NAS 0-100, higher = worse", "result": 40.3},
      {"measurement": "Mean Bowel Function Score, Mean V5", "setting": "[2]; ITT (non-missing), end of maintenance (V5, 4 weeks), naloxone 10 mg/day plus oxycodone 40-80 mg/day, NAS 0-100, higher = worse, listed as naloxone", "result": "40.3 (±23.09) and 40.3 (±23.1)"},
      {"measurement": "Mean Bowel Function Score, Mean V5", "setting": "[2]; ITT (non-missing), end of maintenance (V5, 4 weeks), naloxone 20 mg/day plus oxycodone 40-80 mg/day, NAS 0-100, higher = worse", "result": 31.3},
      {"measurement": "Mean Bowel Function Score, Mean V5", "setting": "[2]; ITT (non-missing), end of maintenance (V5, 4 weeks), naloxone 20 mg/day plus oxycodone 40-80 mg/day, NAS 0-100, higher = worse, listed as naloxone", "result": "31.3 (±25.82) and 31.3 (±25.8)"},
      {"measurement": "Mean Bowel Function Score, Mean V5", "setting": "[2]; ITT (non-missing), end of maintenance (V5, 4 weeks), naloxone 40 mg/day plus oxycodone 40-80 mg/day, NAS 0-100, higher = worse", "result": 26.1},
      {"measurement": "Mean Bowel Function Score, Mean V5", "setting": "[2]; ITT (non-missing), end of maintenance (V5, 4 weeks), naloxone 40 mg/day plus oxycodone 40-80 mg/day, NAS 0-100, higher = worse, listed as naloxone", "result": "26.1 (±25.08) and 26.1 (±25.1)"},
      {"measurement": "Mean Bowel Function Score, Mean V3", "setting": "[2]; ITT non-missing, naloxone 10 mg/day group, NAS 0-100, higher = worse", "result": 53.5},
      {"measurement": "Mean Bowel Function Score, Mean V3", "setting": "[2]; ITT non-missing, naloxone 20 mg/day group, NAS 0-100, higher = worse", "result": 51.3},
      {"measurement": "Mean Bowel Function Score, Mean V3", "setting": "[2]; ITT non-missing, naloxone 40 mg/day group, NAS 0-100, higher = worse", "result": 48.2},
      {"measurement": "Mean Bowel Function Score, Mean V5", "setting": "[2]; ITT/LOCF, end of maintenance visit (V5), naloxone 10 mg/day plus oxycodone 40-80 mg/day", "result": 40.1},
      {"measurement": "Mean Bowel Function Score, Mean V5", "setting": "[2]; ITT/LOCF, end of maintenance visit (V5), naloxone 20 mg/day plus oxycodone 40-80 mg/day", "result": 33.2},
      {"measurement": "Mean Bowel Function Score, Mean V5", "setting": "[2]; ITT/LOCF, end of maintenance visit (V5), naloxone 40 mg/day plus oxycodone 40-80 mg/day", "result": 26.5},
      {"measurement": "Mean Bowel Function Score, Mean V3", "setting": "[2]; ITT/LOCF, naloxone 10 mg/day group", "result": 53.6},
      {"measurement": "Mean Bowel Function Score, Mean V3", "setting": "[2]; ITT/LOCF, naloxone 20 mg/day group", "result": 49.9},
      {"measurement": "Mean Bowel Function Score, Mean V3", "setting": "[2]; ITT/LOCF, naloxone 40 mg/day group", "result": 47.7},
      {"measurement": "mean bowel function (±SD) at Visit 4", "setting": "[2]; ITT, naloxone 10 mg/day", "result": "42.1 (±25.53)"},
      {"measurement": "mean bowel function (±SD) at Visit 4", "setting": "[2]; ITT, naloxone 20 mg/day", "result": "34.2 (±30.04)"},
      {"measurement": "mean bowel function (±SD) at Visit 4", "setting": "[2]; ITT, naloxone 40 mg/day", "result": "27.9 (±22.68)"},
      {"measurement": "mean bowel function (±SD) at the end of follow-up", "setting": "[2]; ITT, end of two-week follow-up on oxycodone only, former 40 mg naloxone group", "result": "42.4 (±23.19)"},
      {"measurement": "mean bowel function (±SD) at the end of the maintenance phase", "setting": "[2]; naloxone 10 mg/day", "result": "39.4 (±23.44)"},
      {"measurement": "mean bowel function (±SD) at the end of the maintenance phase", "setting": "[2]; naloxone 20 mg/day", "result": "29.8 (±29.29)"},
      {"measurement": "mean bowel function (±SD) at the end of the maintenance phase", "setting": "[2]; naloxone 40 mg/day", "result": "29.6 (±28.34)"},
      {"measurement": "effect of adding controlled release naloxone to controlled release oxycodone on mean bowel function (in words)", "setting": "[2]; the two higher doses of naloxone (20 mg and 40 mg)", "result": "statistically significant improvement in mean bowel function"}
    ]}
  ]
}
